From ChEMBL document CHEMBL1137776, “Structural assessment and biological evaluation of two N3S bombesin derivatives” (J Med Chem, 2009)

Biological target: Gastrin-releasing peptide receptor (Homo sapiens, UniProt P30550)
Assay: Displacement of [125I-Tyr4]BN form BB2 receptor in human PC3 cells
Type: cell-based, PC-3

Sequence of Gastrin-releasing peptide receptor (P30550 whole entry): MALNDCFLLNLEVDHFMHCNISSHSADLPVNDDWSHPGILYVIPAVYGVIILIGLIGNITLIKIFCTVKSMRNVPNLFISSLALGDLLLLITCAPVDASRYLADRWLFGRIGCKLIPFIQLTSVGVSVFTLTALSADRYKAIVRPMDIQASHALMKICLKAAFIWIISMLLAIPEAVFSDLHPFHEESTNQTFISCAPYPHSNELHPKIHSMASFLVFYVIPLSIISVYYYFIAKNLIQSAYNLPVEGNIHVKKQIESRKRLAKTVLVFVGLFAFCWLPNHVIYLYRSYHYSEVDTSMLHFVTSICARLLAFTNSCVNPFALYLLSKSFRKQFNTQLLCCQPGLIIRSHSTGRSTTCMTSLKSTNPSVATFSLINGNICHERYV

| IC50 | Structure (SMILES) |
| --- | --- |
| 0.59 nM | CSCC[C@H](NC(=O)[C@H](CC(C)C)NC(=O)[C@H](Cc1cnc[nH]1)NC(=O)CNC(=O)[C@@H](NC(=O)[C@H](C)NC(=O)[C@H](Cc1c[nH]c2ccccc12)NC(=O)[C@H](CCC(N)=O)NC(=O)[C@H](CC(N)=O)NC(=O)CNC(=O)[C@H](CC(C)C)NC(=O)[C@H](CCCNC(=N)N)NC(=O)[C@H](CCC(N)=O)NC(=O)CCCCCNC(=O)[C@H](CS)NC(=O)CNC(=O)CN)C(C)C)C(N)=O |
| 1.45 nM | CSCC[C@H](NC(=O)[C@H](CC(C)C)NC(=O)[C@H](Cc1cnc[nH]1)NC(=O)CNC(=O)[C@@H](NC(=O)[C@H](C)NC(=O)[C@H](Cc1c[nH]c2ccccc12)NC(=O)[C@H](CCC(N)=O)NC(=O)CCCCCNC(=O)[C@H](CS)NC(=O)CNC(=O)CN)C(C)C)C(N)=O |
